Experimental data published in patent US20020065219A1, “Water soluble thiazolyl peptide derivatives” (priority 2000, published 2002).
Converted amounts (≈) assume the structure as drawn. Where two headings read alike, the source gives them in different places.

What was measured:
[1] = tested on: Staphylococcus aureus A15090; assay: MIC, broth micro dilution assay (NCCLS); format: cell-based; settings: for MIC: Staphylococcus aureus, A15090, 18 h, read-out: MIC (μg/mL) against Staphylococcus aureus A15090
[2] = tested on: Streptococcus pneumoniae A28272; assay: MIC, broth micro dilution assay (NCCLS); format: cell-based; settings: for MIC: Streptococcus pneumoniae, A28272, 18 h, read-out: MIC (μg/mL) against Streptococcus pneumoniae A28272
[3] = tested on: Staphylococcus aureus A15090; assay: animal or person; format: in vivo, female ICR mice; settings: A15090, in Mus musculus, iv, 1 h, read-out: PD50 (dose which protects 50% of mice from mortality)
[4] = tested on: Enterococcus faecalis A20688; assay: MIC, broth micro dilution assay (NCCLS); format: cell-based; settings: for MIC: Enterococcus faecalis, A20688, 18 h, read-out: MIC (μg/mL) against Enterococcus faecalis A20688
[5] = Mueller-Hinton medium, 35° C., 18 hours
[6] = 50% Mueller-Hinton medium and 50% Todd Hewitt medium, 35° C., 18 hours

Compound | MIC [1] [µg/mL] | MIC [2] [µg/mL] | ED50 [3] [mg/kg] | MIC [4] [µg/mL] | MIC (μg/mL) against Staphylococcus aureus A15090 [1, 5] [µg/mL] | MIC (μg/mL) against Streptococcus pneumoniae A28272 [2, 6] [µg/mL] | MIC (μg/mL) against Enterococcus faecalis A20688 [4, 5] [µg/mL] | also measured
CO/C(C)=C1/NC(=O)C([C@@H](C)O)NC(=O)c2csc(n2)-c2cc(O)c(-c3nc(C(=O)NC(CN4CCOCC4)C(N)=O)cs3)nc2-c2csc(n2)[C@@H]2COC(=O)c3c4c5c(cccc5n3O)COC(=O)[C@@H](O[C@H]3C[C@](C)(O)[C@H](N(C)C)[C@H](C)O3)[C@@H](OC4)[C@H](NC(=O)c3csc1n3)c1nc(cs1)C(=O)N2 (stereo partly drawn) [Example 8] | 0.015 (≈ 0.00984 µM) | 0.003 (≈ 0.00197 µM) | 0.19 to 7.3 | 0.125 (≈ 0.082 µM) |  |  |  | 
CCN(CC)CCN(C)CC(NC(=O)c1csc(-c2nc3c(cc2O)-c2nc(cs2)C(=O)NC(C(C)O)C(=O)N/C(=C(\C)OC)c2nc(cs2)C(=O)NC2c4nc(cs4)C(=O)NC(COC(=O)c4c5c6c(cccc6n4O)COC(=O)C(O[C@H]4C[C@](C)(O)[C@H](N(C)C)[C@H](C)O4)C2OC5)c2nc-3cs2)n1)C(N)=O (stereo partly drawn) [Example 6] | 0.125 (≈ 0.0797 µM) | 0.03 (≈ 0.0191 µM) | 0.19 to 7.3 | 2 (≈ 1.28 µM) |  |  |  | 
CO/C(C)=C1/NC(=O)C([C@@H](C)O)NC(=O)c2csc(n2)-c2cc(O)c(-c3nc(C(=O)NC(CNCCCn4ccnc4)C(N)=O)cs3)nc2-c2csc(n2)[C@@H]2COC(=O)c3c4c5c(cccc5n3O)COC(=O)[C@@H](O[C@H]3C[C@](C)(O)[C@H](N(C)C)[C@H](C)O3)[C@H](OC4)[C@H](NC(=O)c3csc1n3)c1nc(cs1)C(=O)N2 (stereo partly drawn) [Example 5] | 1 (≈ 0.64 µM) | 0.03 (≈ 0.0192 µM) | 0.19 to 7.3 | 1 (≈ 0.64 µM) |  |  |  | 
CO/C(C)=C1/NC(=O)C(C(C)O)NC(=O)c2csc(n2)-c2cc(O)c(-c3nc(C(=O)NC(CN(C)CCN(C)C)C(N)=O)cs3)nc2-c2csc(n2)C2COC(=O)c3c4c5c(cccc5n3O)COC(=O)C(O[C@H]3C[C@](C)(O)[C@H](N(C)C)[C@H](C)O3)C(OC4)C(NC(=O)c3csc1n3)c1nc(cs1)C(=O)N2 (stereo partly drawn) [Example 9] | 0.06 (≈ 0.039 µM) | 0.007 (≈ 0.00455 µM) | 0.19 to 7.3 | 0.5 (≈ 0.325 µM) |  |  |  | 
CO/C(C)=C1/NC(=O)C(C(C)O)NC(=O)c2csc(n2)-c2cc(O)c(-c3nc(C(=O)NC(CNCCc4ccccn4)C(N)=O)cs3)nc2-c2csc(n2)C2COC(=O)c3c4c5c(cccc5n3O)COC(=O)C(O[C@H]3C[C@](C)(O)[C@H](N(C)C)[C@H](C)O3)C(OC4)C(NC(=O)c3csc1n3)c1nc(cs1)C(=O)N2 (stereo partly drawn) [Example 3] | 1 (≈ 0.641 µM) | 0.25 (≈ 0.16 µM) | 0.19 to 7.3 | 1 (≈ 0.641 µM) |  |  |  | 
CO/C(C)=C1/NC(=O)C(C(C)O)NC(=O)c2csc(n2)-c2cc(O)c(-c3nc(C(=O)NC(CN(C)C)C(N)=O)cs3)nc2-c2csc(n2)C2COC(=O)c3c4c5c(cccc5n3O)COC(=O)C(O[C@H]3C[C@](C)(O)[C@H](N(C)C)[C@H](C)O3)C(OC4)C(NC(=O)c3csc1n3)c1nc(cs1)C(=O)N2 (stereo partly drawn) [Example 7] | 0.06 (≈ 0.0405 µM) | 0.03 (≈ 0.0202 µM) | 0.19 to 7.3 | 0.125 (≈ 0.0843 µM) |  |  |  | 
CO/C(C)=C1/NC(=O)C(C(C)O)NC(=O)c2csc(n2)-c2cc(O)c(-c3nc(C(=O)NC(CN(C)CCO)C(N)=O)cs3)nc2-c2csc(n2)C2COC(=O)c3[nH]c4cccc5c4c3COC(C(O[C@H]3C[C@](C)(O)[C@H](N(C)C)[C@H](C)O3)C(=O)OC5)C(NC(=O)c3csc1n3)c1nc(cs1)C(=O)N2 (stereo partly drawn) [Example 92] |  |  |  |  | 0.125 (≈ 0.0835 µM) | 0.0005 (≈ 0.000334 µM) | 0.125 (≈ 0.0835 µM) | 
CO/C(C)=C1/NC(=O)C(C(C)O)NC(=O)c2csc(n2)-c2cc(O)c(-c3nc(C(=O)NC(CSC4CN5CCC4CC5)C(N)=O)cs3)nc2-c2csc(n2)C2COC(=O)c3c4c5c(cccc5n3O)COC(=O)C(O[C@H]3C[C@](C)(O)[C@H](N(C)C)[C@H](C)O3)C(OC4)C(NC(=O)c3csc1n3)c1nc(cs1)C(=O)N2 (stereo partly drawn) [Example 60] |  |  |  |  |  |  |  | MIC (μg/mL) against Staphylococcus aureus A15090 [1]: 2.0 µg/mL (≈ 1.27 µM); MIC (μg/mL) against Streptococcus pneumoniae A28272 [2]: 0.5 µg/mL (≈ 0.316 µM); MIC (μg/mL) against Enterococcus faecalis A20688 [4]: 2.0 µg/mL (≈ 1.27 µM)
COC(C)=C1NC(=O)C(C(C)O)NC(=O)c2csc(n2)-c2cc(O)c(-c3nc(C(=O)NC(CN(C)CCC(=O)Nc4ccncc4)C(N)=O)cs3)nc2-c2csc(n2)C2COC(=O)c3c4c5c(cccc5n3O)COC(=O)C(OC3CC(C)(O)C(N(C)C)C(C)O3)C(OC4)C(NC(=O)c3csc1n3)c1nc(cs1)C(=O)N2 (stereo not drawn) [Example 82] |  |  |  |  | 0.5 (≈ 0.309 µM) | 0.03 (≈ 0.0186 µM) | 0.5 (≈ 0.309 µM) | 
CO/C(C)=C1/NC(=O)C(C(C)O)NC(=O)c2csc(n2)-c2cc(O)c(-c3nc(C(=O)NC(CN4CCCC4)C(N)=O)cs3)nc2-c2csc(n2)C2COC(=O)c3c4c5c(cccc5n3O)COC(=O)C(O[C@H]3C[C@](C)(O)[C@H](N(C)C)[C@H](C)O3)C(OC4)C(NC(=O)c3csc1n3)c1nc(cs1)C(=O)N2 (stereo partly drawn) [Example 15] |  |  |  |  |  |  |  | MIC (μg/mL) against Staphylococcus aureus A15090 [1]: 0.06 µg/mL (≈ 0.0398 µM); MIC (μg/mL) against Streptococcus pneumoniae A28272 [2]: 0.015 µg/mL (≈ 0.00994 µM); MIC (μg/mL) against Enterococcus faecalis A20688 [4]: 0.5 µg/mL (≈ 0.331 µM)
CO/C(C)=C1/NC(=O)C(C(C)O)NC(=O)c2csc(n2)-c2cc(O)c(-c3nc(C(=O)NC(CN(CCCN(C)C)CCCN(C)C)C(N)=O)cs3)nc2-c2csc(n2)C2COC(=O)c3c4c5c(cccc5n3O)COC(=O)C(O[C@H]3C[C@](C)(O)[C@H](N(C)C)[C@H](C)O3)C(OC4)C(NC(=O)c3csc1n3)c1nc(cs1)C(=O)N2 (stereo partly drawn) [Example 27] |  |  |  |  | 4.0 (≈ 2.46 µM) | 0.0005 (≈ 0.000308 µM) | 2.0 (≈ 1.23 µM) | 
CO/C(C)=C1/NC(=O)C(C(C)O)NC(=O)c2csc(n2)-c2cc(O)c(-c3nc(C(=O)NC(CSCC(=O)OCc4ccccc4)C(N)=O)cs3)nc2-c2csc(n2)C2COC(=O)c3c4c5c(cccc5n3O)COC(=O)C(O[C@H]3C[C@](C)(O)[C@H](N(C)C)[C@H](C)O3)C(OC4)C(NC(=O)c3csc1n3)c1nc(cs1)C(=O)N2 (stereo partly drawn) [Example 34] |  |  |  |  | 1.0 (≈ 0.617 µM) | 0.001 (≈ 0.000617 µM) | 1.0 (≈ 0.617 µM) | 
CNC(=O)On1c2c3c4c(cccc41)COC(=O)C(OC1CC(C)(O)C(N(C)C)C(C)O1)C(OC3)C1NC(=O)c3csc(n3)/C(=C(/C)OC)NC(=O)C(C(C)O)NC(=O)c3csc(n3)-c3cc(O)c(-c4nc(C(=O)NC(CN(CCN(C)C)C(=O)NC)C(N)=O)cs4)nc3-c3csc(n3)C(COC2=O)NC(=O)c2csc1n2 (stereo not drawn) [Example 111] |  |  |  |  |  |  |  | MIC (μg/mL) against Staphylococcus aureus A15090 [1]: 1.0 µg/mL (≈ 0.61 µM); MIC (μg/mL) against Streptococcus pneumoniae A28272 [2]: 0.06 µg/mL (≈ 0.0366 µM); MIC (μg/mL) against Enterococcus faecalis A20688 [4]: 2.0 µg/mL (≈ 1.22 µM)
CO/C(C)=C1/NC(=O)C(C(C)O)NC(=O)c2csc(n2)-c2cc(O)c(-c3nc(C(=O)NC(CN[C@@H](C)c4ccccc4)C(N)=O)cs3)nc2-c2csc(n2)C2COC(=O)c3c4c5c(cccc5n3O)COC(=O)C(O[C@H]3C[C@](C)(O)[C@H](N(C)C)[C@H](C)O3)C(OC4)C(NC(=O)c3csc1n3)c1nc(cs1)C(=O)N2 (stereo partly drawn) [Example 61] |  |  |  |  | 0.25 (≈ 0.16 µM) | 0.03 (≈ 0.0192 µM) | 0.25 (≈ 0.16 µM) | 
COCC(Cn1ccnc1)SCC(NC(=O)c1csc(-c2nc3c(cc2O)-c2nc(cs2)C(=O)NC(C(C)O)C(=O)NC(=C(C)OC)c2nc(cs2)C(=O)NC2c4nc(cs4)C(=O)NC(COC(=O)c4c5c6c(cccc6n4O)COC(=O)C(OC4CC(C)(O)C(N(C)C)C(C)O4)C2OC5)c2nc-3cs2)n1)C(N)=O (stereo not drawn) [Example 80] |  |  |  |  | 0.25 (≈ 0.155 µM) | 0.03 (≈ 0.0186 µM) | 0.125 (≈ 0.0776 µM) | 
COC(C)=C1NC(=O)C(C(C)O)NC(=O)c2csc(n2)-c2cc(O)c(-c3nc(C(=O)NC(CN4CC5CC4CN5C)C(N)=O)cs3)nc2-c2csc(n2)C2COC(=O)c3c4c5c(cccc5n3O)COC(=O)C(OC3CC(C)(O)C(N(C)C)C(C)O3)C(OC4)C(NC(=O)c3csc1n3)c1nc(cs1)C(=O)N2 (stereo not drawn) [Example 73] |  |  |  |  |  |  |  | MIC (μg/mL) against Staphylococcus aureus A15090 [1]: 0.25 µg/mL (≈ 0.161 µM); MIC (μg/mL) against Streptococcus pneumoniae A28272 [2]: 0.015 µg/mL (≈ 0.00968 µM); MIC (μg/mL) against Enterococcus faecalis A20688 [4]: 2.0 µg/mL (≈ 1.29 µM)
CO/C(C)=C1/NC(=O)C(C(C)O)NC(=O)c2csc(n2)-c2cc(O)c(-c3nc(C(=O)NC(CNCCCN4CCN(C)CC4)C(N)=O)cs3)nc2-c2csc(n2)C2COC(=O)c3c4c5c(cccc5n3O)COC(=O)C(O[C@H]3C[C@](C)(O)[C@H](N(C)C)[C@H](C)O3)C(OC4)C(NC(=O)c3csc1n3)c1nc(cs1)C(=O)N2 (stereo partly drawn) [Example 51] |  |  |  |  |  |  |  | MIC (μg/mL) against Staphylococcus aureus A15090 [1]: 0.25 µg/mL (≈ 0.157 µM); MIC (μg/mL) against Streptococcus pneumoniae A28272 [2]: 0.015 µg/mL (≈ 0.00941 µM); MIC (μg/mL) against Enterococcus faecalis A20688 [4]: 4.0 µg/mL (≈ 2.51 µM)
COC(C)=C1NC(=O)C(C(C)O)NC(=O)c2csc(n2)-c2cc(O)c(-c3nc(C(=O)NC(CN4CCCC4C(O)C4CCCCC4)C(N)=O)cs3)nc2-c2csc(n2)C2COC(=O)c3c4c5c(cccc5n3O)COC(=O)C(OC3CC(C)(O)C(N(C)C)C(C)O3)C(OC4)C(NC(=O)c3csc1n3)c1nc(cs1)C(=O)N2 (stereo not drawn) [Example 90] |  |  |  |  | 0.03 (≈ 0.0185 µM) | 0.007 (≈ 0.00432 µM) | 0.06 (≈ 0.037 µM) | 
